Tests used:
CFTR [1] = experiment: Immunofluorescence staining of CFTR in CFBE41o− cells; type: cell-based, human; settings: CFBE41o− cells treated for 24 h, different concentrations
Description: CFBE41o− and 16HBE14o− cells, respectively, were seeded on a glass slide and, after exposure to agent or vehicle, were washed twice with PBS 1× and fixed with paraformaldehyde 4% (PFA) for 30 min and stored in PBS 1× at 4° C. until immunostaining. The fixed cells were washed twice with PBS 1×, and treated for 3 minutes with […] NH4Cl at room temperature in order to quench the aldehyde group. After another washing step, the cells were permeabilized with TRITON X100 0.1% for 5 minutes and were blocked with a solution of 1% BSA for 30 minutes. The anti-CFTR antibody M3A7, raised against an epitope corresponding to residues 1197-1480 of human CFTR (Santa Cruz) was added at 1:100 dilution for 1 hour, then the cells were stained with secondary antibody anti IgG1 488 (1:1000, Santa Cruz) and Rhodamine Phalloidine (1:500) for another hour. Finally, the cells were subjected to DAPI (Sigma Aldrich) staining (1:2000) for 1 hour at RT, then the slides were analyzed by Leica DM6000M microscope with a 40× objective. Images were processed for brightness and contrast with Adobe Photoshop.
FIG. 6: Immunofluorescence staining performed on CFBE41o− cells treated for 24 h with VX809+VX770, CHF6001 and Roflumilast at different concentrations or vehicle (DMSO).

CFTR channel = biological target: T1, CFTR channel (Homo sapiens, UniProt P13569); experiment: Transepithelial electrical resistance (TEER) assay on 16HBE14o− bronchial epithelial cells; type: cell-based; settings: 16HBE14o− cells, 10, 30 and 60 minutes; CHF6001 30 nM, Roflumilast 50 nM
T1 construct: the TEER assay was performed with these agents on 16HBE14o− bronchial epithelial cells (BEC); endogenous in cells; host or cells: 16HBE14o− human bronchial epithelial cell line (provided by P. Davis)

CFTR [2] = biological target: T2, CFTR (Homo sapiens, UniProt P13569, DEL508-508); experiment: Western Blot, total presence of CFTR protein in CFBE41o− cells; type: cell-based; settings: 24 h exposure, VRT809 5 μM
T2 construct: cells expressing endogenous ΔF508-CFTR; endogenous in cells; host or cells: CFBE41o− human CF bronchial epithelial cell line (gift from D. C. Gruenert), homozygous ΔF508
Description: CFBE41o− and 16HBE14o− cells, respectively, were lysed in lysis buffer (50 mmol/L Tris, 150 mmol/L NaCl, 1 mmol/L EDTA, 1% Triton X-100 pH 7.4) containing protease inhibitors (Roche, Inc.). A total of 10 μg (16HBE14o−/CFBE41o−) total protein per lane was separated using 7.5% (v/v) polyacrylamide electrophoresis (PAGE) SDS gels and transferred onto nitro-cellulose membranes, that were probed with a monoclonal anti-CFTR antibody (Cell Signaling 2269; according to information provided by Cell Signaling produced by immunizing rabbits with a synthetic peptide corresponding to amino acid residues near the amino terminus of human CFTR) at a 1:500 dilution, overnight at 4° C. Membranes were re-probed with a monoclonal anti-actin (Sigma-Aldrich) to normalize for protein loading. The relative levels of CFTR were estimated by densitometry using the ImageJ program (http://rsb.info.nih.gov/ij/). The amount of band C (understood to be the fully glycosylated mature form of CFTR)) is calculated as a fraction of actin for the respective lane and reported as a fraction of the total (band C/actin). […] The values reported are expressed as means+/−SD (n=3). Data sets were compared by a t-test using GraphPad Prism. […]
FIG. 5. Presence of CFTR was evaluated by western blotting in human bronchial epithelial cell lines 16HBE14o− (non CF) and CFBE41o− (ΔF508/ΔF508) after 24 h exposure to CFTR corrector VRT809 (5 μM) in comparison with the two compounds CHF6001 and Roflumilast.
Top: average of several experiments; the relative levels of CFTR were estimated by densitometry using the ImageJ program (http://rsb.info.nih.gov/ij/). The native amount of band C is calculated as a fraction of actin for the respective lane and reported as a fraction of the total (band C/actin). The values reported are expressed as means+/−SEM (n=3). […]

T1 sequence (P13569 whole entry): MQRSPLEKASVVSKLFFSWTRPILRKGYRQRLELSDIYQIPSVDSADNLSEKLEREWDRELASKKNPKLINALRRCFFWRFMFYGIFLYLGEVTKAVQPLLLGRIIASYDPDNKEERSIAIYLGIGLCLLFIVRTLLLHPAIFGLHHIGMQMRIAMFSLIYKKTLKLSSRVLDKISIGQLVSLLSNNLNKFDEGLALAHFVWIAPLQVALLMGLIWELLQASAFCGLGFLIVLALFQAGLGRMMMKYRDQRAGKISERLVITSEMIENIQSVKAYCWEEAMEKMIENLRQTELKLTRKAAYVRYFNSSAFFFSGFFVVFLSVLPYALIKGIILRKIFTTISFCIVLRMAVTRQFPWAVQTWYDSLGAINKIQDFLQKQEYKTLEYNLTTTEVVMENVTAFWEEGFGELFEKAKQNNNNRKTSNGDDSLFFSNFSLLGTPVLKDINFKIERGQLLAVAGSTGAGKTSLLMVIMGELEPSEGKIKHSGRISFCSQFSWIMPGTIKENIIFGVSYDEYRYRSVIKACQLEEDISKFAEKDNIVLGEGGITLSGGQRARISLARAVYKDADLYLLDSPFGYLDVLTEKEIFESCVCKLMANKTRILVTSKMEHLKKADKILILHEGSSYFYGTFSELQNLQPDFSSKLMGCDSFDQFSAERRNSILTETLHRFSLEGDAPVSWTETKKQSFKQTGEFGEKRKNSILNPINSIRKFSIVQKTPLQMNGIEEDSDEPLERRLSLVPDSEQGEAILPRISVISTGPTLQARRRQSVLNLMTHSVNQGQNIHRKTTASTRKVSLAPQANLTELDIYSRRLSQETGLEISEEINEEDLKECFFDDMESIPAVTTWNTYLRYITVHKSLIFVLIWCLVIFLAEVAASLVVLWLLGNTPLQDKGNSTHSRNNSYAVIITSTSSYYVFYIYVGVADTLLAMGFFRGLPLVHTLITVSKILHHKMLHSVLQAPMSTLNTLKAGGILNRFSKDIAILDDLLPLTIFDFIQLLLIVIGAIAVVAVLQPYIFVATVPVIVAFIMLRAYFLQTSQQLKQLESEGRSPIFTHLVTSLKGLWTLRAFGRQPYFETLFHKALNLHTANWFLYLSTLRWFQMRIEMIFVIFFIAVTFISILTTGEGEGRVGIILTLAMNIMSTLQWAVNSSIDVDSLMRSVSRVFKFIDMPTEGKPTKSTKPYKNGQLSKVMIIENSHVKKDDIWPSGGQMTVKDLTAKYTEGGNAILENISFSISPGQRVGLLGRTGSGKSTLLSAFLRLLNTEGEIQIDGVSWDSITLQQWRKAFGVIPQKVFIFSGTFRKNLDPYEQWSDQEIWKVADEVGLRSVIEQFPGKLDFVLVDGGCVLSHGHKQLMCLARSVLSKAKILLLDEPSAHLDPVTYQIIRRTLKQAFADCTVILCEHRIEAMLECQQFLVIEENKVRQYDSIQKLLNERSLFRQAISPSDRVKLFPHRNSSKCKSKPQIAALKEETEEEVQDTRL
T2 sequence (P13569 with tags, fused parts or gaps DEL508-508): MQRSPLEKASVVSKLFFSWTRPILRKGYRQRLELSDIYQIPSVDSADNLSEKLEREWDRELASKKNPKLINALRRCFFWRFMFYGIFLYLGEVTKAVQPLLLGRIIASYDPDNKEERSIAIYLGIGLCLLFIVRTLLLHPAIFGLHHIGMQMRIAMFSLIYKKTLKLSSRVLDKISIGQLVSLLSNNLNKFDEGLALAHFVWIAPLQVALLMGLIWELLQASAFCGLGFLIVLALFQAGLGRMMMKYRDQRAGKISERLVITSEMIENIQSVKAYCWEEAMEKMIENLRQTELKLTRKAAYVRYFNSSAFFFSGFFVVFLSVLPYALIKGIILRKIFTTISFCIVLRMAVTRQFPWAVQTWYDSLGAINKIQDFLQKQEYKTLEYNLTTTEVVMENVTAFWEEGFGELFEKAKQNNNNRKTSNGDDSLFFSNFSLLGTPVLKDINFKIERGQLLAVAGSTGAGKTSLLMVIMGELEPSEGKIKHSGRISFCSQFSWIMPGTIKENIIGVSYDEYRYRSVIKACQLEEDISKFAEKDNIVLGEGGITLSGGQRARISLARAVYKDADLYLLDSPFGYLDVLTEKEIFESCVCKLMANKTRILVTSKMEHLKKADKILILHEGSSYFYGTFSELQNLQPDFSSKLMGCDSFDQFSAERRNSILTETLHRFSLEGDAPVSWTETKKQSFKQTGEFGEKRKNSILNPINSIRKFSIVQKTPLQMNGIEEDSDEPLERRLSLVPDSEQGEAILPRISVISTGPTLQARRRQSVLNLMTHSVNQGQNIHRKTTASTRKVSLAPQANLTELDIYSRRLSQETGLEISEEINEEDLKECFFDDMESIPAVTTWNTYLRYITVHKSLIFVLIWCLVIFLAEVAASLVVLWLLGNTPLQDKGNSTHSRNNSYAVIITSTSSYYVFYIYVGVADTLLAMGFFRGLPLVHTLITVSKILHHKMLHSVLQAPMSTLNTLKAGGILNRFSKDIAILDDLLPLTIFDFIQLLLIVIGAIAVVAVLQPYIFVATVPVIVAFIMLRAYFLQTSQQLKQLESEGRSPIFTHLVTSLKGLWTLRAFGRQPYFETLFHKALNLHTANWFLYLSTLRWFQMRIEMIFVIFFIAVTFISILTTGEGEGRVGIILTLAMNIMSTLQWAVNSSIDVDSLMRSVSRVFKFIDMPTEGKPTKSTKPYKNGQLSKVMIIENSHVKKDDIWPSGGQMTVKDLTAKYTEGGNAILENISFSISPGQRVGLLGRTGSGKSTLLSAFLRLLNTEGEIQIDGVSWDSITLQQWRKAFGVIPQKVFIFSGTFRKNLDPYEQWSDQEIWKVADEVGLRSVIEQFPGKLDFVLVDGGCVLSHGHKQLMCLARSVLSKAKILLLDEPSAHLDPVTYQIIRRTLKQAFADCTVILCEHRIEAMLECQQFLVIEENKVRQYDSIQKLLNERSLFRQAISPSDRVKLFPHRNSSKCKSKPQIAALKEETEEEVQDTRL

SMILES	presence of CFTR by immunofluorescence (CFTR [1])	trans-epithelial electric resistance normalized to DMSO (set to 100%) (CFTR channel)	total presence of CFTR protein (band C/actin) (CFTR [2])
CS(=O)(=O)Nc1ccc(C(=O)OC(Cc2c(Cl)c[n+]([O-])cc2Cl)c2ccc(OC(F)F)c(OCC3CC3)c2)cc1OCC1CC1 (stereo not drawn) [CHF6001, 3-Cyclopropylmethoxy-4-methanesulfonylamino-benzoic acid 1-(3-cyclopropylmethoxy-4-difluoromethoxy-phenyl)-2-(3,5-dichloro-1-oxy-pyridin-4-yl)-ethyl ester]	increase the presence of CFTR	decrease the electric resistance	up-regulation of CFTR protein
O=C(Nc1c(Cl)cncc1Cl)c1ccc(OC(F)F)c(OCC2CC2)c1 [Roflumilast, 3-cyclo-propylmethoxy-4-difluoromethoxy-N-[3,5-di-chloropyrid-4-yl]-benzamide]	increase the presence of CFTR	decrease the electric resistance	up-regulation of CFTR protein

Reference: patent publication US20220218678A1, “USE OF 1-PHENYL-2-PYRIDINYL ALKYL ALCOHOL DERIVATIVES FOR TREATING CYSTIC FIBROSIS” (CHIESI FARMACEUTICI S.p.A., priority 2017, published 2022)
